Experiments:
Type in all cases: in vivo
[1] = tested on: giant foxtail (Setaria faberii); assay: Test C preemergence; settings: for Plant response rating (0 to 100), Foxtail, Giant: Rate 250 g/ha, visual evaluation after 12 to 14 days
Summary of the method: (§1)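 Visual injury scores of 0–100, with 100 meaning complete control, were given relative to controls after 12–14 days in the greenhouse. Treatments used a surfactant-containing non-phytotoxic solvent formulation, sprayed on seeded pots preemergence or on 1–4-leaf plants of 2–18 cm postemergence.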

[2] = tested on: velvetleaf (Abutilon theophrasti); assay: Test C preemergence; settings: for Plant response rating (0 to 100), Velvetleaf: Rate 250 g/ha, visual evaluation after 12 to 14 days
Summary of the method: as §1

[3] = tested on: johnsongrass (Sorghum halepense); assay: Test C preemergence; settings: for Plant response rating (0 to 100), Johnsongrass: Rate 250 g/ha, visual evaluation after 12 to 14 days
Summary of the method: as §1

[4] = tested on: corn (Zea mays); assay: Test C preemergence; settings: for Plant response rating (0 to 100), Corn: Rate 250 g/ha, visual evaluation after 12 to 14 days
Summary of the method: as §1

[5] = tested on: bermudagrass (Cynodon dactylon); assay: Test C preemergence; settings: for Plant response rating (0 to 100 where 0 is no effect and 100 is complete control), Bermudagrass: Rate 250 g/ha, visual evaluation after 12 to 14 days
Summary of the method: as §1

[6] = tested on: morningglory (Ipomoea hederacea); assay: Test C preemergence
Summary of the method: as §1

[7] = tested on: yellow nutsedge (Cyperus esculentus); assay: Test C preemergence; settings: for Plant response rating (0 to 100), Nutsedge: Rate 250 g/ha, visual evaluation after 12 to 14 days
Summary of the method: as §1

[8] = tested on: kochia (Kochia scoparia); assay: Test C preemergence; settings: for Plant response rating (0 to 100), Kochia: Rate 250 g/ha, visual evaluation after 12 to 14 days
Summary of the method: as §1

[9] = tested on: Sunflower; assay: Test C preemergence
[10] = tested on: Sunflower; assay: Test C preemergence; settings: Rate 250 g/ha, visual evaluation after 12 to 14 days
[11] = tested on: giant foxtail (Setaria faberii); assay: Test B postemergence; settings: 13 to 15 days
Summary of the method: (§2)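 Visual injury scores, 0 = no effect to 100 = complete control, assigned against controls after 13 to 15 days in the greenhouse. Compounds formulated in non-phytotoxic solvent plus surfactant and applied to soil after planting (pre) or onto foliage of 1- to 4-leaf plants (post).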

[12] = tested on: velvetleaf (Abutilon theophrasti); assay: Test B postemergence; settings: 13 to 15 days
Summary of the method: as §2

[13] = tested on: wild oat (Avena fatua); assay: Test B postemergence; settings: 13 to 15 days
Summary of the method: as §2

[14] = tested on: crabgrass (Digitaria sanguinalis); assay: Test B postemergence; settings: 13 to 15 days
Summary of the method: as §2

[15] = tested on: blackgrass (Alopecurus myosuroides); assay: Test B postemergence; settings: 13 to 15 days
Summary of the method: as §2

[16] = tested on: morning glory (Ipomoea hederacea); assay: Test B postemergence; settings: 13 to 15 days
Summary of the method: as §2

[17] = tested on: barnyardgrass (Echinochloa crus-galli); assay: Test B postemergence; settings: 13 to 15 days
Summary of the method: as §2

[18] = tested on: wheat (Triticum aestivum); assay: Test B postemergence; settings: 13 to 15 days
Summary of the method: as §2

[19] = tested on: lambsquarters (Chenopodium album); assay: Test B postemergence; settings: 13 to 15 days
Summary of the method: as §2

[20] = tested on: pigweed (Amaranthus retroflexus); assay: Test B postemergence; settings: 13 to 15 days
Summary of the method: as §2

[21] = tested on: cocklebur (Xanthium strumarium); assay: Test B postemergence; settings: 13 to 15 days
Summary of the method: as §2

[22] = tested on: corn (Zea mays); assay: Test B postemergence; settings: 13 to 15 days
Summary of the method: as §2

[23] = tested on: Surinam grass (Brachiaria decumbens); assay: Test B postemergence; settings: 13 to 15 days
Summary of the method: as §2

[24] = Preemergence, Rate 500 g/ha, scale 0 to 100
[25] = Rate 62 g/ha, scale 0 to 100, 0 no effect, 100 complete control
[26] = preemergence, Rate 125 g/ha, scale 0 to 100, 0 no effect, 100 complete control
[27] = Rate 125 g/ha, scale 0 (no effect) to 100 (complete control)
[28] = Rate 500 g/ha, scale 0 to 100, 0 is no effect, 100 is complete control

CCC(C)c1ccn(C2SCN(c3cccc(OC(F)(F)F)c3)C2=O)n1 (stereo not drawn) [Compound 40]
100: Plant response rating, Foxtail, Giant [1, 24] | Plant response rating (0 to 100), Foxtail, Giant ([1]; preemergence) | Plant response rating, Johnsongrass [3, 24] | Plant response rating (0 to 100), Johnsongrass ([3]; preemergence) | Plant response rating, Johnsongrass [3, 26] | Plant response rating, Bermudagrass [5, 24] | Plant response rating (0 to 100 where 0 is no effect and 100 is complete control), Bermudagrass ([5]; preemergence) | Plant response rating, Bermudagrass [5, 26] | Plant response rating, Kochia [8, 24] | Plant response rating (0 to 100), Kochia ([8]; preemergence) | Plant response rating, Barnyardgrass [17, 28]
30: Plant response rating (0 to 100), Velvetleaf ([2]; preemergence) | Plant response rating (0 to 100), Sunflower [10] | Plant response rating, Cocklebur [21, 27]
20: Plant response rating, Corn [4, 26] | Plant response rating, Morningglory [16, 28]
10: Plant response rating, Morningglory [16, 27]
0: Plant response rating, Foxtail, Giant [1, 26] | Plant response rating, Velvetleaf [2, 25] | Plant response rating, Velvetleaf [2, 26] | Plant response rating, Corn [4, 25] | Plant response rating, Morningglory [6, 24] | Plant response rating, Morningglory [6, 25] | Plant response rating (0 to 100), Morningglory ([6]; preemergence, Rate 250 g/ha, visual evaluation after 12 to 14 days) | Plant response rating, Morningglory [6, 26] | Plant response rating, Nutsedge [7, 25] | Plant response rating, Nutsedge [7, 26] | Plant response rating, Sunflower [9, 25] | Plant response rating, Velvetleaf [12, 27] | Plant response rating, Velvetleaf [12, 28] | Plant response rating, Wild Oat [13, 27] | Plant response rating, Wild Oat [13, 28] | Plant response rating, Blackgrass [15, 27] | Plant response rating, Blackgrass [15, 28] | Plant response rating, Wheat [18, 27] | Plant response rating, Wheat [18, 28] | Plant response rating, Corn [22, 27] | Plant response rating, Surinam grass [23, 27] | Plant response rating, Surinam grass [23, 28]
90: Plant response rating, Foxtail, Giant [1, 25] | Plant response rating, Corn [4, 24] | Plant response rating, Kochia [8, 26] | Plant response rating, Foxtail, Giant [11, 28] | Plant response rating, Crabgrass [14, 28] | Plant response rating, Barnyardgrass [17, 27] | Plant response rating, Lambsquarters [19, 28]
40: Plant response rating, Sunflower ([9]; Rate 500 g/ha, scale 0 to 100) | Plant response rating, Pigweed [20, 27]
50: Plant response rating, Velvetleaf [2, 24] | Plant response rating, Johnsongrass [3, 25] | Plant response rating (0 to 100), Corn ([4]; preemergence) | Plant response rating (0 to 100), Nutsedge ([7]; preemergence) | Plant response rating, Cocklebur [21, 28] | Plant response rating, Corn [22, 28]
60: Plant response rating, Nutsedge [7, 24] | Plant response rating, Kochia [8, 25] | Plant response rating, Crabgrass [14, 27]
70: Plant response rating, Foxtail, Giant [11, 27] | Plant response rating, Lambsquarters [19, 27]
80: Plant response rating, Bermudagrass [5, 25] | Plant response rating, Pigweed [20, 28]

O=C1C(n2ccc(C3CCCCC3)n2)OCN1c1cccc(C(F)(F)F)c1 (stereo not drawn) [Compound 51]
100: Plant response rating, Foxtail, Giant [1, 24] | Plant response rating (0 to 100), Foxtail, Giant ([1]; preemergence) | Plant response rating, Bermudagrass [5, 24] | Plant response rating (0 to 100 where 0 is no effect and 100 is complete control), Bermudagrass ([5]; preemergence) | Plant response rating, Bermudagrass [5, 26]
70: Plant response rating, Foxtail, Giant [1, 25]
90: Plant response rating, Johnsongrass [3, 24] | Plant response rating, Bermudagrass [5, 25] | Plant response rating, Lambsquarters [19, 28]
20: Plant response rating, Johnsongrass [3, 25] | Plant response rating, Johnsongrass [3, 26] | Plant response rating, Morningglory [6, 24] | Plant response rating, Nutsedge [7, 25] | Plant response rating, Nutsedge [7, 26] | Plant response rating, Crabgrass [14, 28]
30: Plant response rating, Velvetleaf [2, 24] | Plant response rating (0 to 100), Velvetleaf ([2]; preemergence) | Plant response rating, Nutsedge [7, 24] | Plant response rating (0 to 100), Nutsedge ([7]; preemergence) | Plant response rating, Sunflower ([9]; Rate 500 g/ha, scale 0 to 100) | Plant response rating (0 to 100), Sunflower [10]
0: Plant response rating, Foxtail, Giant [1, 26] | Plant response rating, Velvetleaf [2, 26] | Plant response rating, Corn [4, 24] | Plant response rating, Corn [4, 25] | Plant response rating (0 to 100), Corn ([4]; preemergence) | Plant response rating, Morningglory [6, 26] | Plant response rating, Foxtail, Giant [11, 27] | Plant response rating, Foxtail, Giant [11, 28] | Plant response rating, Velvetleaf [12, 27] | Plant response rating, Velvetleaf [12, 28] | Plant response rating, Wild Oat [13, 27] | Plant response rating, Wild Oat [13, 28] | Plant response rating, Crabgrass [14, 27] | Plant response rating, Blackgrass [15, 27] | Plant response rating, Blackgrass [15, 28] | Plant response rating, Morningglory [16, 27] | Plant response rating, Morningglory [16, 28] | Plant response rating, Barnyardgrass [17, 27] | Plant response rating, Barnyardgrass [17, 28] | Plant response rating, Wheat [18, 27] | Plant response rating, Wheat [18, 28] | Plant response rating, Pigweed [20, 27] | Plant response rating, Cocklebur [21, 27] | Plant response rating, Cocklebur [21, 28] | Plant response rating, Corn [22, 27] | Plant response rating, Corn [22, 28] | Plant response rating, Surinam grass [23, 27] | Plant response rating, Surinam grass [23, 28]
50: Plant response rating (0 to 100), Kochia ([8]; preemergence) | Plant response rating, Kochia [8, 26]
60: Plant response rating (0 to 100), Johnsongrass ([3]; preemergence)
40: Plant response rating, Kochia [8, 25]
80: Plant response rating, Kochia [8, 24] | Plant response rating, Lambsquarters [19, 27] | Plant response rating, Pigweed [20, 28]
